Test results: US9187480B2, “Peripherally restricted diphenyl purine derivatives” (RESEARCH TRIANGLE INSTITUTE, priority 2012, dated 2015)

Target: CB2 (Homo sapiens (Human), UniProt P34972)
Experiment: Displacement of [3H]CP55940 in membranes of CHO-K1 cells over-expressing CB2
Assay type: binding
Conditions: radioligand [3H]CP55940, CHO-K1 membranes; read-out: Ki (nM) v. [3H]CP55940 at CB2

Sequence of CB2 (P34972 whole entry): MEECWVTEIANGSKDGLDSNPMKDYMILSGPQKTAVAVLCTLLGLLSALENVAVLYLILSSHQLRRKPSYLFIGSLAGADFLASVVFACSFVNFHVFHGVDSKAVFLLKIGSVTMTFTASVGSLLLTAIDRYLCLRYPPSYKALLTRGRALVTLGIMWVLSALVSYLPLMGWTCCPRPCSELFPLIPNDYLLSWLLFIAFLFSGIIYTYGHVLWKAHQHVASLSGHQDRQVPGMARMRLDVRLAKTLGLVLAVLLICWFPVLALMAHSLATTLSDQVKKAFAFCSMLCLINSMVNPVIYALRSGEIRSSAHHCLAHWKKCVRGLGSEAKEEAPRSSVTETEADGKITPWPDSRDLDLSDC

Row | SMILES | Ki [nM]
1 | CCOC(=O)NC1CCN(c2ncnc3c2nc(-c2ccccc2Cl)n3-c2ccc(Cl)cc2)CC1 [drawing 62] | 426
2 | O=C(NC1CCN(c2ncnc3c2nc(-c2ccccc2Cl)n3-c2ccc(Cl)cc2)CC1)C1CCCC1 | 60.2
3 | CC(C)(C)OC(=O)NC1(c2ccccc2)CCN(c2ncnc3c2nc(-c2ccccc2Cl)n3-c2ccc(Cl)cc2)CC1 | 13900
4 | CCNC(=O)NC1(c2ccccc2)CCN(c2ncnc3c2nc(-c2ccccc2Cl)n3-c2ccc(Cl)cc2)CC1 | 4640
5 | O=C(NC1CCN(c2ncnc3c2nc(-c2ccccc2Cl)n3-c2ccc(Cl)cc2)CC1)C1CCCCC1 | 835
6 | CC(C)CCC(=O)NC1CCN(c2ncnc3c2nc(-c2ccccc2Cl)n3-c2ccc(Cl)cc2)CC1 | 215

Target: T1, CB1 (Homo sapiens (Human), UniProt P21554)
T1 sequence (P21554 whole entry): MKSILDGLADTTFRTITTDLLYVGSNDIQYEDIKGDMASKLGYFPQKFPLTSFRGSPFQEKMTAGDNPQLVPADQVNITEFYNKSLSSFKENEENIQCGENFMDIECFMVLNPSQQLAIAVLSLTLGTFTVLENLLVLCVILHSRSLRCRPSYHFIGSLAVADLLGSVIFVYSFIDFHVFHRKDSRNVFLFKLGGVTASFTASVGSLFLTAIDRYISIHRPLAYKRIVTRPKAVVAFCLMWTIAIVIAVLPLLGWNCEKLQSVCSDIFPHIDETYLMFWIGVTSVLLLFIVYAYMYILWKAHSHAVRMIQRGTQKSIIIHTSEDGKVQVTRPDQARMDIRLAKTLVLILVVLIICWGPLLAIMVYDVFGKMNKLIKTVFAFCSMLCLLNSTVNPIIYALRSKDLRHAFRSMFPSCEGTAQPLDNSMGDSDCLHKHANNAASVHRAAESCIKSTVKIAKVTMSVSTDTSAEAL
Experiment: Displacement of [3H]CP55940 in membranes of CHO-K1 cells over-expressing CB1;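 further: reported values are averages of 3-6 independent measurements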
Conditions: CB1 versus CB2
Experimental: Further characterization of select compounds was performed using radioligand displacement of [3H]1 and equilibrium dissociation constant (Ki) values were determined. Selectivity of these compounds at CB1 versus CB2 was also determined by obtaining Ki values at either receptor using displacement of [3H]CP55940 in membranes of CHO-K1 cells over-expressing either receptor. Data reported are average values from 3-6 measurements.
Selectivity against the CB2 receptor was determined by comparing the compound displacement of radiolabeled CP55940, which is a cannabinoid known to act as a full agonist at both CB1 and CB2 receptors.

Row | SMILES | Binding Selectivity using CP55940 Displacement
7 | CCOC(=O)NC1CCN(c2ncnc3c2nc(-c2ccccc2Cl)n3-c2ccc(Cl)cc2)CC1 [drawing 62] | 119
8 | O=C(NC1CCN(c2ncnc3c2nc(-c2ccccc2Cl)n3-c2ccc(Cl)cc2)CC1)C1CCCC1 | 39
9 | CC(C)(C)OC(=O)NC1(c2ccccc2)CCN(c2ncnc3c2nc(-c2ccccc2Cl)n3-c2ccc(Cl)cc2)CC1 | 1959
10 | CCNC(=O)NC1(c2ccccc2)CCN(c2ncnc3c2nc(-c2ccccc2Cl)n3-c2ccc(Cl)cc2)CC1 | 24
11 | O=C(NC1CCN(c2ncnc3c2nc(-c2ccccc2Cl)n3-c2ccc(Cl)cc2)CC1)C1CCCCC1 | 249
12 | CC(C)CCC(=O)NC1CCN(c2ncnc3c2nc(-c2ccccc2Cl)n3-c2ccc(Cl)cc2)CC1 | 81

Same assay, conditions: read-out: Ki (nM) v. [3H]CP55940 at CB1; radioligand [3H]CP55940, CHO-K1 membranes

Row | SMILES | Ki [nM]
13 | CCOC(=O)NC1CCN(c2ncnc3c2nc(-c2ccccc2Cl)n3-c2ccc(Cl)cc2)CC1 [drawing 62] | 3.57
14 | O=C(NC1CCN(c2ncnc3c2nc(-c2ccccc2Cl)n3-c2ccc(Cl)cc2)CC1)C1CCCC1 | 1.54
15 | CC(C)(C)OC(=O)NC1(c2ccccc2)CCN(c2ncnc3c2nc(-c2ccccc2Cl)n3-c2ccc(Cl)cc2)CC1 | 7.12
16 | CCNC(=O)NC1(c2ccccc2)CCN(c2ncnc3c2nc(-c2ccccc2Cl)n3-c2ccc(Cl)cc2)CC1 | 195
17 | O=C(NC1CCN(c2ncnc3c2nc(-c2ccccc2Cl)n3-c2ccc(Cl)cc2)CC1)C1CCCCC1 | 3.35
18 | CC(C)CCC(=O)NC1CCN(c2ncnc3c2nc(-c2ccccc2Cl)n3-c2ccc(Cl)cc2)CC1 | 2.67

Tested on: not listed separately
Experiment: Brain penetration / plasma and brain levels after oral dosing in SD rats
Assay type: in vivo, Sprague-Dawley (SD) rats
Conditions: Sprague-Dawley, rat, brain and plasma, oral 10 mg/kg, 1 hour post dose
Experimental: However, unlike otenabant, this sulfonamide is a peripherally selective compound. […] Select compounds were chosen for study to determine penetration into the CNS. Selected compounds were dosed orally at 10 mg/kg in SD rats. Brain and plasma samples were collected at 1, 2, 4, and 24 hours post dose and samples were analyzed by MS (Table 2, below). Since unperfused brains were used and the blood volume in unperfused brains is approximately 4%, a brain to plasma level of ≦0.04 represents no discernible penetration into the CNS.

Row | SMILES | Kp at 1 h
19 | CCOC(=O)NC1CCN(c2ncnc3c2nc(-c2ccccc2Cl)n3-c2ccc(Cl)cc2)CC1 [drawing 84] | 0.28
20 | CCCCC(=O)NC1CCN(c2ncnc3c2nc(-c2ccccc2Cl)n3-c2ccc(Cl)cc2)CC1 [drawing 85] | 0.03

Same assay, conditions: Sprague-Dawley, rat, brain and plasma, oral 10 mg/kg, 2 hours post dose

Row | SMILES | Kp at 2 h
21 | CCOC(=O)NC1CCN(c2ncnc3c2nc(-c2ccccc2Cl)n3-c2ccc(Cl)cc2)CC1 [drawing 84] | 0.14
22 | CCCCC(=O)NC1CCN(c2ncnc3c2nc(-c2ccccc2Cl)n3-c2ccc(Cl)cc2)CC1 [drawing 85] | 0.03

Same assay, conditions: Sprague-Dawley, rat, brain and plasma, oral 10 mg/kg, 4 hours post dose

Row | SMILES | Kp at 4 h
23 | CCOC(=O)NC1CCN(c2ncnc3c2nc(-c2ccccc2Cl)n3-c2ccc(Cl)cc2)CC1 [drawing 84] | 0.16
24 | CCCCC(=O)NC1CCN(c2ncnc3c2nc(-c2ccccc2Cl)n3-c2ccc(Cl)cc2)CC1 [drawing 85] | 0.07

Same assay, conditions: Sprague-Dawley, rat, brain and plasma, oral 10 mg/kg, 24 hours post dose

Row | SMILES | Kp at 24 h
25 | CCOC(=O)NC1CCN(c2ncnc3c2nc(-c2ccccc2Cl)n3-c2ccc(Cl)cc2)CC1 [drawing 84] | 0.46
26 | CCCCC(=O)NC1CCN(c2ncnc3c2nc(-c2ccccc2Cl)n3-c2ccc(Cl)cc2)CC1 [drawing 85] | 0.13

Same assay, conditions: Sprague-Dawley, rat, brain and plasma, oral 10 mg/kg, range over sampling times, read-out: brain to plasma ratios

Row | SMILES | Kp
27 | CCOC(=O)NC1CCN(c2ncnc3c2nc(-c2ccccc2Cl)n3-c2ccc(Cl)cc2)CC1 [drawing 84] | 0.14 to 0.46
28 | CCCCC(=O)NC1CCN(c2ncnc3c2nc(-c2ccccc2Cl)n3-c2ccc(Cl)cc2)CC1 [drawing 85] | 0.03 to 0.13

Same assay, conditions: oral 10 mg/kg, 1 hour post dose

Row | SMILES | Plasma conc. [ng/mL]
29 | CCOC(=O)NC1CCN(c2ncnc3c2nc(-c2ccccc2Cl)n3-c2ccc(Cl)cc2)CC1 [drawing 84] | 740
30 | CCCCC(=O)NC1CCN(c2ncnc3c2nc(-c2ccccc2Cl)n3-c2ccc(Cl)cc2)CC1 [drawing 85] | 1430

Same assay, conditions: oral 10 mg/kg, 2 hours post dose

Row | SMILES | Plasma conc. [ng/mL]
31 | CCOC(=O)NC1CCN(c2ncnc3c2nc(-c2ccccc2Cl)n3-c2ccc(Cl)cc2)CC1 [drawing 84] | 971
32 | CCCCC(=O)NC1CCN(c2ncnc3c2nc(-c2ccccc2Cl)n3-c2ccc(Cl)cc2)CC1 [drawing 85] | 2780

Same assay, conditions: oral 10 mg/kg, 4 hours post dose

Row | SMILES | Plasma conc. [ng/mL]
33 | CCOC(=O)NC1CCN(c2ncnc3c2nc(-c2ccccc2Cl)n3-c2ccc(Cl)cc2)CC1 [drawing 84] | 1750
34 | CCCCC(=O)NC1CCN(c2ncnc3c2nc(-c2ccccc2Cl)n3-c2ccc(Cl)cc2)CC1 [drawing 85] | 1680

Same assay, conditions: oral 10 mg/kg, 24 hours post dose

Row | SMILES | Plasma conc. [ng/mL]
35 | CCOC(=O)NC1CCN(c2ncnc3c2nc(-c2ccccc2Cl)n3-c2ccc(Cl)cc2)CC1 [drawing 84] | 72.6
36 | CCCCC(=O)NC1CCN(c2ncnc3c2nc(-c2ccccc2Cl)n3-c2ccc(Cl)cc2)CC1 [drawing 85] | 18.7

Same assay, conditions: oral 10 mg/kg, unperfused brain, 1 hour post dose

Row | SMILES | Brain conc. [ng/mL]
37 | CCOC(=O)NC1CCN(c2ncnc3c2nc(-c2ccccc2Cl)n3-c2ccc(Cl)cc2)CC1 [drawing 84] | 207
38 | CCCCC(=O)NC1CCN(c2ncnc3c2nc(-c2ccccc2Cl)n3-c2ccc(Cl)cc2)CC1 [drawing 85] | 43.6

Same assay, conditions: oral 10 mg/kg, unperfused brain, 2 hours post dose

Row | SMILES | Brain conc. [ng/mL]
39 | CCOC(=O)NC1CCN(c2ncnc3c2nc(-c2ccccc2Cl)n3-c2ccc(Cl)cc2)CC1 [drawing 84] | 132
40 | CCCCC(=O)NC1CCN(c2ncnc3c2nc(-c2ccccc2Cl)n3-c2ccc(Cl)cc2)CC1 [drawing 85] | 72.4

Same assay, conditions: oral 10 mg/kg, unperfused brain, 4 hours post dose

Row | SMILES | Brain conc. [ng/mL]
41 | CCOC(=O)NC1CCN(c2ncnc3c2nc(-c2ccccc2Cl)n3-c2ccc(Cl)cc2)CC1 [drawing 84] | 276
42 | CCCCC(=O)NC1CCN(c2ncnc3c2nc(-c2ccccc2Cl)n3-c2ccc(Cl)cc2)CC1 [drawing 85] | 119

Same assay, conditions: oral 10 mg/kg, unperfused brain, 24 hours post dose

Row | SMILES | Brain conc. [ng/mL]
43 | CCOC(=O)NC1CCN(c2ncnc3c2nc(-c2ccccc2Cl)n3-c2ccc(Cl)cc2)CC1 [drawing 84] | 33.5
44 | CCCCC(=O)NC1CCN(c2ncnc3c2nc(-c2ccccc2Cl)n3-c2ccc(Cl)cc2)CC1 [drawing 85] | 2.36

Tested on: MDCK-MDR
Experiment: MDCK-MDR transport (apical to basal)
Assay type: in vitro ADME
Conditions: not given

Row | SMILES | % MDCK-MDR transport (Apical to Basal) [%]
45 | CC(C)(C)OC(=O)NC1(c2ccccc2)CCN(c2ncnc3c2nc(-c2ccccc2Cl)n3-c2ccc(Cl)cc2)CC1 | <1

Target: T1, CB1
Experiment: CB1 activated Gαq16-coupled intracellular calcium mobilization assay in CHO-K1 cells
Assay type: cell-based
Conditions: apparent affinity (Ke)

Row | SMILES | Ke (nM) at CB1 [nM]
46 | CC(C)NC(=O)NC1(c2ccccc2)CCN(c2ncnc3c2nc(-c2ccccc2Cl)n3-c2ccc(Cl)cc2)CC1 | 46
47 | CCCNC(=O)N1CCC(Nc2ncnc3c2nc(-c2ccccc2Cl)n3-c2ccc(Cl)cc2)CC1 | 1964
48 | CC(=O)N1CCC(Nc2ncnc3c2nc(-c2ccccc2Cl)n3-c2ccc(Cl)cc2)CC1 | 19595
49 | NC1CCN(c2ncnc3c2nc(-c2ccccc2Cl)n3-c2ccc(Cl)cc2)CC1 | 316
50 | CCOC(=O)NC1CCN(c2ncnc3c2nc(-c2ccccc2Cl)n3-c2ccc(Cl)cc2)CC1 [drawing 62] | 2.3
51 | O=C(NC1CCN(c2ncnc3c2nc(-c2ccccc2Cl)n3-c2ccc(Cl)cc2)CC1)C1CCCC1 | 0.89
52 | CC(C)(C)OC(=O)NC1(c2ccccc2)CCN(c2ncnc3c2nc(-c2ccccc2Cl)n3-c2ccc(Cl)cc2)CC1 | 3.93
53 | CCNC(=O)NC1(c2ccccc2)CCN(c2ncnc3c2nc(-c2ccccc2Cl)n3-c2ccc(Cl)cc2)CC1 | 443
54 | O=C(NC1CCN(c2ncnc3c2nc(-c2ccccc2Cl)n3-c2ccc(Cl)cc2)CC1)C1CCCCC1 | 3.3
55 | CC(C)CCC(=O)NC1CCN(c2ncnc3c2nc(-c2ccccc2Cl)n3-c2ccc(Cl)cc2)CC1 | 7.4
